Data as given in patent US20100008965A1, “BIOCOMPATIBLE MEDICAL PRODUCTS HAVING ENHANCED ANTI-THROMBOGENIC PROPERTIES” (priority 2008, published 2010).

Legend:
human platelets [1] = assay: DiOC6-labeled platelet adhesion imaging under shear flow; assay type: cell-based; conditions: 16.5 dyne/cm^2, one hour, platelets activated prior to flow
Method: To visualize shear stress-mediated platelet adhesion to the immobilized ECM proteins, non-radiolabeled non-activated or thrombin-activated human platelets were prepared as described above, but were first incubated for ten minutes at room temperature with a 10 μM DiOC6 (dihexaoxacarbocyanine iodide) (Sigma) solution prior to being subjected to flow for one hour at a shear stress τ=16.5 dyne/cm^2. Post-flow, all slides were rinsed twice with PBS and fixed with 4% (w/v) paraformaldehyde. Platelet adhesion was visualized on a Nikon Diaphot 200 inverted epifluorescence microscope (Nikon) at 488 nm using a 40× objective. Images were captured using an Olympus DP70 digital camera (Olympus America, Inc.) and analyzed using the Adobe® Photoshop® software package version 6.0 (Adobe Systems Incorporated, San Jose, Calif.).

HUVEC [2] = assay: HUVEC retention under unidirectional fluid flow; assay type: cell-based, human; conditions: 15 dyne/cm^2, thirty minutes; CS-1 p=0.1, fibronectin p=0.07
Method: (§1) In addition to the above, 75×38×1 mm glass microscope slides (Fisher Scientific Research, Pittsburgh, Pa.) were sterilized and coated overnight with human plasma fibronectin or CS-1 peptide at 5 μg/cm^2, or with PBS only. Slides were incubated for one hour at room temperature with a 0.01% (w/v) sterile-filtered BSA solution. HCAEC or HUVEC were seeded in basal medium on slides at 1.85×10^4 cells/cm^2 and permitted to adhere for eight hours under static conditions at 37° C. Fluid flow was performed using parallel plate flow chambers connected to fluid flow loops, as described in Pavalko et al., Fluid shear stress inhibits TNF-alpha-induced apoptosis in osteoblasts: a role for fluid shear stress-induced activation of PI3-kinase and inhibition of caspase-3. J Cell Phys 194, 194, 2002. Briefly, endothelial cell-seeded slides were secured within flow chambers and connected to fluid flow loops. All flows were performed in a 37° C. environment with serum-free culture medium that was continually bathed in a 5% CO2 atmosphere. […] Fluorescence micrographs were captured as described above. […] Nuclei were counted from five equally distributed visual fields per slide and pooled together for each substrate condition. Data was calculated as percent (%) cell retention, where % retention=[(average nuclei count)flow÷(average nuclei count)static]×100.

human platelets [3] = assay: 51Cr-labeled platelet adhesion to immobilized ECM proteins under shear flow; assay type: cell-based; conditions: 16.5 dyne/cm^2, one hour; non-activated and thrombin-activated; versus CS-1 and glass control
Method: Characterization of human platelet adhesion to immobilized extracellular matrix proteins was performed by subjecting non-activated or thrombin-activated human platelets to a shear stress τ=16.5 dyne/cm^2 for one hour using a peristaltic pump-driven parallel plate fluid flow system. Washed human platelets were isolated as described above, resuspended in platelet washing buffer (PWB), and adjusted to a final concentration of approximately 0.5-1.0×10^9 platelets/ml. The platelet suspensions were incubated for thirty minutes at room temperature with 25 μCi/ml Na2^51CrO4 (GE Healthcare, Piscataway, N.J.). ^51Cr-labeled platelets were centrifuged at 2000×g for three minutes at room temperature and resuspended in 20 ml fresh frozen plasma previously thawed and warmed to 37° C. The ^51Cr-platelet/plasma solution was distributed equally (5 ml) into each of four reservoirs containing an additional 50 ml of 37° C. human plasma. For thrombin-activated platelets, 1 U thrombin (Sigma) per 3 ml platelet suspension was added immediately prior to aliquoting the ^51Cr-platelet/plasma solution into the flow loop reservoirs.
75×38×1 mm glass microscope slides were coated with ECM proteins as described above. Slides were incubated for one hour at room temperature with a 0.25% (w/v) sterile-filtered BSA solution. […]

HCAEC [4] = assay: HCAEC retention under unidirectional fluid flow; assay type: cell-based, human; conditions: 15 dyne/cm^2, thirty minutes
Method: as §1

HUVEC [5] = assay: HUVEC spreading on coated glass slides, static; assay type: cell-based, human; conditions: 5 μg/cm^2 coating, two hours, p<0.01
Method: (§2) 22×25×1 mm glass slides (Electron Microscopy Sciences, Hatfield, Pa.) were washed sequentially in 100% acetone, ethanol and HCl (2:1), and deionized and Milli-Q H2O, followed by autoclave sterilization. Slides were coated with one of the following PBS-solubilized extracellular matrix proteins at 5 μg/cm^2: (a) human type I collagen (Sigma), (b) human plasma fibronectin (Chemicon), or (c) CS-1 peptide (American Peptide Company). All coated slides were dried overnight at room temperature, rinsed with PBS, and blocked with a 0.01% (w/v) heat-inactivated BSA-solution at room temperature for one hour. HCAEC or HUVEC were seeded onto the slides in basal medium at 1×10^4 cells/cm^2 and permitted to attach and spread for two hours at 37° C. Cells were fixed with 4% (w/v) paraformaldehyde and co-stained for fluorescence microscopic analysis using Texas Red®-X phalloidin (Molecular Probes, Eugene, Oreg.) and DAPI (EMB Chemicals, Inc., San Diego, Calif.). Fluorescence micrographs were captured through a 10× objective on a Nikon Diaphot 200 inverted epifluorescence microscope (Nikon, Inc., Melville, N.Y.) using an Olympus DP70 digital camera (Olympus America, Inc., Melville, N.Y.). Image Tool software package version 3.0 (University of Texas Health Science Center, San Antonio, Tex.) was used to quantify endothelial cell surface area.

HCAEC [6] = assay: HCAEC spreading on coated glass slides, static; assay type: cell-based, human; conditions: 5 μg/cm^2 coating, two hours, p<0.0001
Method: as §2

CS-1: full-length 25 amino acid polypeptide, first 25 amino acid sequence of the fibronectin type IIICS domain (DELPQLVTLPHPNLHGPEILDVPST; Homo sapien)
thrombin-activated platelet adhesion and thrombus formation (DiOC6 images) (human platelets [1]): higher binding to the CS-1 substratum relative to their non-activated counterparts
HUVEC percent retention versus control substrate (HUVEC [2]): not statistically distinguishable from the control substrate
flowed platelet binding (51Cr), both states of activation (human platelets [3]): lack of significant upregulation in platelet binding
HCAEC percent retention versus non-ECM-coated control substrate (HCAEC [4]; p<0.05): statistically greater
HCAEC percent retention versus fibronectin substrate (HCAEC [4]; p=0.9): not statistically different
HUVEC spread area relative to the non-ECM-coated control substrate (HUVEC [5]): statistically significant increase
HCAEC spread area relative to the non-ECM-coated control substrate (HCAEC [6]): statistically significant increase
